Entries after “also recorded” stand apart in the source; their conditions may differ.
Columns and labels:
[1] = Kinetics of reaction in dependence of pH-conditions (degradation of Phe and Reb-A, Gluc, Xyl, Suc by HPLC/MS)
Experimental: Quantitative evaluation was performed using external standardization.
Kinetics of Reaction in Dependence of pH-Conditions

[2] = Stevia-derived MRPs with NHDC and Thaumatin, also in Redbull sugarfree (Ex. 261); set-up: species or system human; details: 150 μl sample in 100 ml Redbull sugar free
Experimental: 150 μl of the each sample was added to 100 ml Redbull sugar free and mixed. The taste profiles of the samples were compared. As a control, a RedBull sugar free sample without the addition of Steviaroma was used.
Before tasting the tasters discussed the upcoming series of samples and tasted samples with predetermined attributes with varying intensities to find a commonality in description. Four trained tasters blind taste tested independently all samples of a series. They were allowed to re-taste and made notes for the sensory attributes perceived including the relative intensity.
In the last step the attributes noted were discussed openly to find an acceptable description. In case that more than 1 taster disagreed with the description, the tasting was repeated.

[3] = Sensory evaluation of GSGs and SGs, Thaumatin, NHDC and combinations (Ex. 255); set-up: species or system human; details: in water; 4.5 ppm Thaumatin and/or 50 ppm GSGs and SGs, NHDC 1-5 ppm
Experimental: 4.5 ppm Thaumatin (equivalent to 10 ppm EPCalin) was dissolved in water. Increasing amounts of NHDC (1-5 ppm) were added to the solution and the sensory properties were evaluated.
50 ppm (GSGs and SGs) were dissolved in water. Increasing amounts of NHDC (1-5 ppm) were added to the solution and the sensory properties were evaluated.
50 ppm (GSGs and SGs) and 4.5 ppm Thaumatin (equivalent to 10 ppm EPCalin) were dissolved in water. Increasing amounts of NHDC (1-5 ppm) were added to the solution and the sensory properties were evaluated.
Sweetness intensity was rated on 5-point scale

[4] = DPPH radical-scavenging activity (Ex. 65); format: biochemical; details: iron-III reduction and DPPH radical scavenging (FIG. 49, 50); 100° C., 0-5 hours
Experimental: 1 mg 1,1-Diphenyl-2-picrylhydrazyl radical (DPPH)/ml ethanol, dilution to assay concentration were prepared in ethanol (40 μg/mL); Calibration samples were prepared with Ascorbic acid in a concentration of 0-10 μg/mL; as a negative control sample, water was used.
Samples in aqueous solution were used as such or diluted with water.
A 0.1 ml sample (or calibration standard) was mixed with 3.9 ml solution of DPPH (100 μMolar) and reacted while protected from light at room temperature for 30 min. Absorbance was determined at 517 nm against ethanol.
10 mM of amino acid and/or 10 mM sugar were dissolved in 10 ml 0.1 mM KH2PO4-buffer, pH=7.8.
The samples were kept at 100° C. in sealed glass vials (Pyrex 15 ml with screw caps) for 0 (before reaction), 2.5 or 5.0 hours. Thereafter the samples were transferred to an ice water bath and cooled down to room temperature. These samples were diluted 1:10 and used for the test assay for anti-oxidant potential.

## O=C(O)[C@H](Cc1ccccc1)NCC(=O)[C@@H](O)[C@H](O)[C@H](O)CO [MRI (Phe-Glu)]
[1]; pH = 5.5
  % formation from degraded Phe: <0.10%
[1]; pH = 7.0
  % formation from degraded Phe: 0.54%
[1]; pH = 8.5
  % formation from degraded Phe: 0.84%

## COc1ccc(CCC(=O)c2c(O)cc(O[C@@H]3O[C@H](CO)[C@@H](O)[C@H](O)[C@H]3O[C@@H]3O[C@@H](C)[C@H](O)[C@@H](O)[C@H]3O)cc2O)cc1O [NHDC, Neohesperidin dihydrochalcone]
[2]
  taste profile in sugarfree beverage: improved the mouth-feel and harmony of taste impression yielding a substantially improved taste profile
[3]
  sensory properties of combinations with NHDC: long lasting lingering; also recorded: boosts the lingering

## C=C1C[C@@]23CC[C@H]4[C@@](C)(CCC[C@@]4(C)C(=O)O[C@@H]4O[C@H](CO)[C@@H](O)[C@H](O)[C@H]4O)[C@@H]2CC[C@]1(O[C@@H]1O[C@H](CO)[C@@H](O)[C@H](O[C@@H]2O[C@H](CO)[C@@H](O)[C@H](O)[C@H]2O)[C@H]1O[C@@H]1O[C@H](CO)[C@@H](O)[C@H](O)[C@H]1O)C3 [Reb-A, Rebaudioside A]
[4]
  anti-oxidant properties: substantial anti-oxidant properties

From patent US11369127B2, “Sweetener and flavor compositions, methods of making and methods of use thereof” (EPC Natural Products Co., Ltd., priority 2018, dated 2022)
